This is an account of results in patent US12281149B2, “Modulators of G-protein coupled receptors” (priority 2021, dated 2025).

Read-outs that look alike come from different tables or passages of the source. *1 amine or outer side, *2 acyl side, *3 side chain or, on linkers, in order; H or OH if unused. Where a SMILES comes first, the peptide text is derived from it. Side-chain parts run from the residue outwards. [ ]: non-standard residue; d: D form. The star is where a group is joined. Isobutyryl(2-(3-CN-5-F-Ph)) = CC(C)(C(=O)*)c1cc(F)cc(C#N)c1; C20 diacid = O=C(O)CCCCCCCCCCCCCCCCCCC(=O)*; γGlu = O=C(O)[C@H](CCC(=O)[*:2])N[*:1]; X53 = CC(C)(C(=O)*)c1cc(F)cc(F)c1; X55 = COc1cccc(C(C)(C)C(=O)*)c1; X16 = FC(F)(F)c1cccc(N*)c1; AEEA = NCCOCCOCC(=O)O; Aib = CC(C)(N)C(=O)O; CO = O=C([*:1])[*:2]; GABA = NCCCC(=O)O; βAla = NCCC(=O)O

What all share (type): cell-based
Test [1] addresses T1, GIP receptor (Homo sapiens, UniProt P48546).
T1 sequence (P48546 22-466): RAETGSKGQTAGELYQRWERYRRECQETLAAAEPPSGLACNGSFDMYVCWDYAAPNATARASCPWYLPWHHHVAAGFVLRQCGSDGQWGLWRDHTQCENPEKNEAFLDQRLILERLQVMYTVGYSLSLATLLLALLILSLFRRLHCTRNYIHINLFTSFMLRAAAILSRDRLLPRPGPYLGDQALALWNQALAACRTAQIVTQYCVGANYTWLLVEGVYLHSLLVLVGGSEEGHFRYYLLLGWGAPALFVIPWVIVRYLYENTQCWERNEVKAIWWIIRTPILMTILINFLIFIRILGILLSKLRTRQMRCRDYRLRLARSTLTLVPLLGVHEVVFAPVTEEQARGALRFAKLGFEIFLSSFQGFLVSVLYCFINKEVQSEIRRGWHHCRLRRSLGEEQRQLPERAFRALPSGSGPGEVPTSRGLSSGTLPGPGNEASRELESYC
The test can be described thus: PathHunter β-arrestin assay, GIP receptor. On the set-up: host or cells: PathHunter CHO-K1 GIPR β-Arrestin Cell Line.

Test [2] deals with T2, GLP-1 receptor (Homo sapiens, UniProt P43220). Briefly: PathHunter β-arrestin assay, GLP-1 receptor. On the set-up: host or cells: PathHunter CHO-K1 GLP1R β-Arrestin Cell Line.
Method: β-arrestin-2 recruitment for GLP-1 receptor or GIP receptor was measured using the DiscoverX PathHunter Detection Kit and PathHunter® CHO-K1 GLPIR β-Arrestin Cell Line or PathHunter® CHO-K1 GIPR β-Arrestin Cell Line, respectively). Briefly, cells were grown in Ham's F12 Nutrient Mix with 10% FBS and lifted with Cell dissociation buffer, Enzyme free, PBS based (ThermoFisher). Harvested cells were pelleted and resuspended in Assay Complete Cell Plating Reagent 2 and 5000 cells per well were plated in tissue culture treated 384-well small volume white assay plates. Plates were then incubated at 37° C. and 5% CO2 overnight. The media was then replaced with fresh Assay Complete Cell Plating Reagent 2. Cells were then treated with 10 nl compound in DMSO using an ECHO 550 acoustic dispenser (Labcyte) in a 20-point dose response format in duplicate for 90 min at 37° C. The assay was then completed according to the manufacturer's instructions. Luminescence was measured using a Perkin Elmer Envision plate reader. Raw data was normalized to the maximum signal from GLP-1 or GIP (high) and DMSO (low). Dose response curves were analyzed using GraphPad Prism 9.0.
For test [3], the target named is T1, GIP receptor. The test can be described thus: HitHunter cAMP assay, GIP receptor. The note with it: for Emax: read-out: Emax GIP-1R.
In test [4] the target is T2, GLP-1 receptor. The test can be described thus: HitHunter cAMP assay, GLP-1 receptor. Conditions: for Emax: read-out: Emax GLP-1R.
[5] abbreviates: β-arrestin-2 recruitment, PathHunter CHO-K1 GIPR β-Arrestin Cell Line, 90 min at 37° C., normalized to GIP, read-out: GIPR β Arrestin EC50.
[6] abbreviates: β-arrestin-2 recruitment, PathHunter CHO-K1 GLP1R β-Arrestin Cell Line, 90 min at 37° C., normalized to GLP-1, read-out: GLP-1R β Arrestin EC50.
Setting [7] is: CHO cells stably expressing GIP receptor, cAMP accumulation, 30 min, read-out: EC50 GIP-1R.
[8] abbreviates: CHO cells, cAMP, normalized to maximum signal from GIP (high) and DMSO (low).
[9] abbreviates: CHO cells stably expressing human GLP-1 receptor, cAMP accumulation, 30 min, read-out: EC50 GLP-1R.
The mark [10] stands for this setting: CHO cells, cAMP, normalized to maximum signal from GLP-1 (high) and DMSO (low).

T2 sequence (P43220 24-463): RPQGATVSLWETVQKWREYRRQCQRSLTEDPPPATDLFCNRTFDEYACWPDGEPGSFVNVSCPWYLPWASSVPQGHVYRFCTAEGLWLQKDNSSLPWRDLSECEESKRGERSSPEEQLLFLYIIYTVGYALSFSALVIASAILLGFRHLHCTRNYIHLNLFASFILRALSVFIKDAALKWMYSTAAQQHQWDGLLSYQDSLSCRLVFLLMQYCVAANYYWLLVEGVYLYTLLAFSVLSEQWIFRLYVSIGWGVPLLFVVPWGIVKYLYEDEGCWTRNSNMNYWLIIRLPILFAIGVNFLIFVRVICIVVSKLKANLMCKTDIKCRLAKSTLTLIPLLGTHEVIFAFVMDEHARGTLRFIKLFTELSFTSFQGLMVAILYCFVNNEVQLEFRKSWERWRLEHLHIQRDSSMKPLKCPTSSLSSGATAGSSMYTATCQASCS

Turning to `CC[C@H](C)[C@H](NC(=O)[C@H](CC(C)C)NC(=O)[C@H](Cc1c[nH]c2ccccc12)NC(=O)[C@H](CCC(N)=O)NC(=O)[C@@H](NC(=O)[C@H](Cc1ccccc1)NC(=O)[C@H](C)NC(=O)[C@H](CCCCNC(=O)COCCOCCNC(=O)COCCOCCNC(=O)CC[C@H](NC(=O)CCCCCCCCCCCCCCCCCCC(=O)O)C(=O)O)NC(=O)[C@H](CCC(N)=O)NC(=O)[C@H](C)NC(=O)[C@@H](NC(=O)[C@H](CCCCN)NC(=O)[C@H](CC(=O)O)NC(=O)[C@H](CC(C)C)NC(=O)C(C)(C)NC(=O)[C@@H](NC(=O)[C@H](CO)NC(=O)[C@H](Cc1ccc(O)cc1)NC(=O)[C@H](CC(=O)O)NC(=O)[C@H](CO)NC(=O)[C@@H](NC(=O)[C@H](Cc1ccccc1)NC(=O)[C@@H](NC(=O)CNC(=O)[C@H](CCC(=O)O)NC(=O)CCCNC(=O)CNC(=O)Nc1cccc(C(F)(F)F)c1)[C@@H](C)O)[C@@H](C)O)[C@@H](C)CC)[C@@H](C)CC)C(C)C)C(=O)N[C@@H](C)C(=O)NCC(=O)NCC(=O)N1CCC[C@H]1C(=O)N[C@@H](CO)C(=O)N[C@@H](CO)C(=O)NCC(=O)N[C@@H](C)C(=O)N1CCC[C@H]1C(=O)N1CCC[C@H]1C(=O)N1CCC[C@H]1C(=O)N[C@@H](CO)C(N)=O` [Compound 263] ({X16-CO}-G[GABA]EGTFTSDYSI[Aib]LDKIAQK([AEEA-AEEA-γGlu-C20 diacid])AFVQWLIAGGPSSGAPPPS-NH2), the EC50 was greater than 1000 nM on GIP receptor [1], greater than 1000 nM at GLP-1 receptor [2], 1 to 10 nM at GIP receptor [3] and 1 to 10 nM at GLP-1 receptor [4]. Further, the Emax was 104% on GIP receptor [3] (CHO) and 98% on GLP-1 receptor [4] (CHO).
For the compound `CC[C@H](C)[C@H](NC(=O)[C@H](CC(C)C)NC(=O)[C@H](Cc1c[nH]c2ccccc12)NC(=O)[C@H](CCC(N)=O)NC(=O)[C@@H](NC(=O)[C@H](Cc1ccccc1)NC(=O)[C@H](C)NC(=O)[C@H](CCCCNC(=O)COCCOCCNC(=O)COCCOCCNC(=O)CC[C@H](NC(=O)CCCCCCCCCCCCCCCCCCC(=O)O)C(=O)O)NC(=O)[C@H](CCC(N)=O)NC(=O)[C@H](C)NC(=O)[C@@H](NC(=O)[C@H](CCCCN)NC(=O)[C@H](CC(=O)O)NC(=O)[C@H](CC(C)C)NC(=O)C(C)(C)NC(=O)[C@@H](NC(=O)[C@H](CO)NC(=O)[C@H](Cc1ccc(O)cc1)NC(=O)[C@H](CC(=O)O)NC(=O)[C@H](CO)NC(=O)[C@@H](NC(=O)[C@H](Cc1ccccc1)NC(=O)[C@@H](NC(=O)CNC(=O)[C@H](CCC(=O)O)NC(=O)CCNC(=O)C(C)(C)c1cc(F)cc(F)c1)[C@@H](C)O)[C@@H](C)O)[C@@H](C)CC)[C@@H](C)CC)C(C)C)C(=O)N[C@@H](C)C(=O)NCC(=O)NCC(=O)N1CCC[C@H]1C(=O)N[C@@H](CO)C(=O)N[C@@H](CO)C(=O)NCC(=O)N[C@@H](C)C(=O)N1CCC[C@H]1C(=O)N1CCC[C@H]1C(=O)N1CCC[C@H]1C(=O)N[C@@H](CO)C(N)=O` [Compound 173] ({X53-βAla}-EGTFTSDYSI[Aib]LDKIAQK([AEEA-AEEA-γGlu-C20 diacid])AFVQWLIAGGPSSGAPPPS-NH2), the half-maximal effective concentration (EC50) at GIP receptor [1] (setting [5]) was greater than 1000 nM; at GLP-1 receptor [2] (setting [6]), greater than 1000 nM; on GIP receptor [3] (setting [7]), 1 to 10 nM; on GLP-1 receptor [4] (setting [9]), less than 0.1 nM. For the same compound, the values for the Emax on GIP receptor [3] (setting [8]) and on GLP-1 receptor [4] (setting [10]) were 103% and 98%, respectively.
In the case of `CC[C@H](C)[C@H](NC(=O)[C@H](CC(C)C)NC(=O)[C@H](Cc1c[nH]c2ccccc12)NC(=O)[C@H](CCC(N)=O)NC(=O)[C@@H](NC(=O)[C@H](Cc1ccccc1)NC(=O)[C@H](CCC(=O)O)NC(=O)[C@H](CCCCNC(=O)COCCOCCNC(=O)COCCOCCNC(=O)CC[C@H](NC(=O)CCCCCCCCCCCCCCCCCCC(=O)O)C(=O)O)NC(=O)[C@H](CCC(N)=O)NC(=O)[C@H](C)NC(=O)[C@@H](NC(=O)[C@H](CCCCN)NC(=O)[C@H](CC(=O)O)NC(=O)[C@H](CC(C)C)NC(=O)C(C)(C)NC(=O)[C@@H](NC(=O)[C@H](CO)NC(=O)[C@H](Cc1ccc(O)cc1)NC(=O)[C@H](CC(=O)O)NC(=O)[C@H](CO)NC(=O)[C@@H](NC(=O)[C@H](Cc1ccccc1)NC(=O)[C@@H](NC(=O)CNC(=O)[C@H](CCC(=O)O)NC(=O)CCNC(=O)C(C)(C)c1cc(F)cc(C#N)c1)[C@@H](C)O)[C@@H](C)O)[C@@H](C)CC)[C@@H](C)CC)C(C)C)C(=O)N[C@@H](C)C(=O)NCC(=O)NCC(=O)N1CCC[C@H]1C(=O)N[C@@H](CO)C(=O)N[C@@H](CO)C(=O)NCC(=O)N[C@@H](C)C(=O)N1CCC[C@H]1C(=O)N1CCC[C@H]1C(=O)N1CCC[C@H]1C(=O)N[C@@H](CO)C(N)=O` [Compound 196] ({Isobutyryl(2-(3-CN-5-F-Ph))-βAla}-EGTFTSDYSI[Aib]LDKIAQK([AEEA-AEEA-γGlu-C20 diacid])EFVQWLIAGGPSSGAPPPS-NH2), the EC50 on GIP receptor [1] (setting [5]) is greater than 1000 nM; on GLP-1 receptor [2] (setting [6]), greater than 1000 nM; at GIP receptor [3] (setting [7]), 1 to 10 nM; on GLP-1 receptor [4] (setting [9]) it was 0.1 to 1 nM. The maximal response (Emax) at GIP receptor [3] (setting [8]) is 100%; at GLP-1 receptor [4] (setting [10]), 95%.
On to `CC[C@H](C)[C@H](NC(=O)[C@H](CC(C)C)NC(=O)[C@H](Cc1c[nH]c2ccccc12)NC(=O)[C@H](CCC(N)=O)NC(=O)[C@@H](NC(=O)[C@H](Cc1ccccc1)NC(=O)[C@H](C)NC(=O)[C@H](CCCCNC(=O)COCCOCCNC(=O)COCCOCCNC(=O)CC[C@H](NC(=O)CCCCCCCCCCCCCCCCCCC(=O)O)C(=O)O)NC(=O)[C@H](CCC(N)=O)NC(=O)[C@H](C)NC(=O)[C@@H](NC(=O)[C@H](CCCCN)NC(=O)[C@H](CC(=O)O)NC(=O)[C@H](CC(C)C)NC(=O)C(C)(C)NC(=O)[C@@H](NC(=O)[C@H](CO)NC(=O)[C@H](Cc1ccc(O)cc1)NC(=O)[C@H](CC(=O)O)NC(=O)[C@H](CO)NC(=O)[C@@H](NC(=O)[C@H](Cc1ccccc1)NC(=O)[C@@H](NC(=O)CNC(=O)[C@H](CCC(=O)O)NC(=O)CCNC(=O)C(C)(C)c1cccc(OC)c1)[C@@H](C)O)[C@@H](C)O)[C@@H](C)CC)[C@@H](C)CC)C(C)C)C(=O)N[C@@H](C)C(=O)NCC(=O)NCC(=O)N1CCC[C@H]1C(=O)N[C@@H](CO)C(=O)N[C@@H](CO)C(=O)NCC(=O)N[C@@H](C)C(=O)N1CCC[C@H]1C(=O)N1CCC[C@H]1C(=O)N1CCC[C@H]1C(=O)N[C@@H](CO)C(N)=O` [Compound 209] ({X55-βAla}-EGTFTSDYSI[Aib]LDKIAQK([AEEA-AEEA-γGlu-C20 diacid])AFVQWLIAGGPSSGAPPPS-NH2), for which the EC50 on GIP receptor [1] (setting [5]) is greater than 1000 nM; on GLP-1 receptor [2] (setting [6]), greater than 1000 nM; on GIP receptor [3] (setting [7]) it was 10 to 100 nM; on GLP-1 receptor [4] (setting [9]), 0.1 to 1 nM. The Emax at GIP receptor [3] (setting [8]) was 105%; on GLP-1 receptor [4] (setting [10]), 101%.
`CC[C@H](C)[C@H](NC(=O)[C@H](CC(C)C)NC(=O)[C@H](Cc1c[nH]c2ccccc12)NC(=O)[C@H](CCC(N)=O)NC(=O)[C@@H](NC(=O)[C@H](Cc1ccccc1)NC(=O)[C@H](C)NC(=O)[C@H](CCCCNC(=O)COCCOCCNC(=O)COCCOCCNC(=O)CC[C@H](NC(=O)CCCCCCCCCCCCCCCCCCC(=O)O)C(=O)O)NC(=O)[C@H](CCC(N)=O)NC(=O)[C@H](C)NC(=O)[C@@H](NC(=O)[C@H](CCCNC(=N)N)NC(=O)[C@H](CC(=O)O)NC(=O)[C@H](CC(C)C)NC(=O)C(C)(C)NC(=O)[C@@H](NC(=O)[C@H](CO)NC(=O)[C@H](Cc1ccc(O)cc1)NC(=O)[C@H](CC(=O)O)NC(=O)[C@H](CO)NC(=O)[C@@H](NC(=O)[C@H](Cc1ccccc1)NC(=O)[C@@H](NC(=O)CNC(=O)[C@H](CCC(=O)O)NC(=O)CCNC(=O)C(C)(C)c1cc(F)cc(C#N)c1)[C@@H](C)O)[C@@H](C)O)[C@@H](C)CC)[C@@H](C)CC)C(C)C)C(=O)N[C@@H](C)C(=O)NCC(=O)NCC(=O)N1CCC[C@H]1C(=O)N[C@@H](CO)C(=O)N[C@@H](CO)C(=O)NCC(=O)N[C@@H](C)C(=O)N1CCC[C@H]1C(=O)N1CCC[C@H]1C(=O)N1CCC[C@H]1C(=O)N[C@@H](CO)C(N)=O` [Compound 242] ({Isobutyryl(2-(3-CN-5-F-Ph))-βAla}-EGTFTSDYSI[Aib]LDRIAQK([AEEA-AEEA-γGlu-C20 diacid])AFVQWLIAGGPSSGAPPPS-NH2): the results for the EC50 at GLP-1 receptor [2] (setting [6]), at GIP receptor [3] (setting [7]) and at GLP-1 receptor [4] (setting [9]) were greater than 1000 nM, 10 to 100 nM and 0.1 to 1 nM, respectively. For the same compound, the Emax at GIP receptor [3] (setting [8]) came out at 115%; on GLP-1 receptor [4] (setting [10]), 99%.
